Several values for one entry are separate records, joined by “and”; a condition that tells them apart may be missing. Equal entries are not always repeated.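 Values below derive from 48-hour exposures of cells grown in 96-well plates, with endpoints linearly interpolated between the two concentrations bracketing the appropriate inhibition level. GI50 = concentration required for 50% inhibition of growth. Definition used: TGI = concentration required for complete inhibition of growth.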

For 10 compounds, TGI and GI50 results are on record in PubChem BioAssay (NCI).

Some test systems named below: RXF 393 renal; SW-620 colon; COLO 205 colon; KM12 colon; OVCAR-5 ovarian; NCI/ADR-RES ovarian; SF-268 CNS; A549 NSCLC; SF-295 CNS; HOP-92 NSCLC.
Assay in all cases: NCI tumour cell line growth inhibition, 48 h

As for `OCC1NC(COC2OC(CO)C(O)C(O)C2O)C(O)C(O)C1O` (stereo not given), the TGI in the assay on RXF 393 renal, in the assay with SW-620 colon, in the assay with COLO 205 colon, in the assay with KM12 colon, in the assay on OVCAR-5 ovarian and with NCI/ADR-RES ovarian was more than 100 µM each time. For the same compound, the TGI in the assay on SF-268 CNS, with A549 NSCLC, with SF-295 CNS and in the assay with HOP-92 NSCLC was more than 100 µM each time.

For the compound `Cc1c2cnccc2c(C)c2c1c1cc(O)ccc1n2C(C)C`, the GI50 with RXF 393 renal is 935 nM; with SW-620 colon, 408 nM; in the assay on COLO 205 colon it was 2360 nM; in the assay with KM12 colon, 570 nM; with OVCAR-5 ovarian, 2420 nM; in the assay on NCI/ADR-RES ovarian, 1140 nM. Moreover, the GI50 was 1180 nM with SF-268 CNS, 744 nM in the assay with A549 NSCLC, 1700 nM in the assay on SF-295 CNS and 2110 nM with HOP-92 NSCLC. Moreover, the TGI with RXF 393 renal was 2.39 µM; in the assay on SW-620 colon, 3.27 µM; in the assay on COLO 205 colon, 6.02 µM; with KM12 colon, 9.87 µM; in the assay with OVCAR-5 ovarian it was 9.46 µM; in the assay with NCI/ADR-RES ovarian, 4.23 µM. Further, the TGI in the assay on SF-268 CNS is 3.62 µM; in the assay on A549 NSCLC, 8.17 µM; in the assay on SF-295 CNS, 5.35 µM; with HOP-92 NSCLC, 7.28 µM.

Take `O=C(O)C1C2C=CC(O2)C1C(=O)NCc1cccnc1` (stereo not given): the TGI in the assay on RXF 393 renal, in the assay on SW-620 colon, with COLO 205 colon, in the assay with KM12 colon, with OVCAR-5 ovarian and in the assay on NCI/ADR-RES ovarian was more than 100 µM in each case. Also, the TGI with SF-268 CNS, with A549 NSCLC, in the assay on SF-295 CNS and in the assay with HOP-92 NSCLC was more than 100 µM in each case.

`Cc1cc(S(=O)(=O)/N=C(\N)Nc2cccc(O)c2)c(SCc2ccccc2)cc1Cl`: the GI50 in the assay on RXF 393 renal is 16200 nM; in the assay with SW-620 colon, 29300 nM; in the assay with COLO 205 colon, 28800 nM; in the assay on KM12 colon, 15600 nM; with OVCAR-5 ovarian, 23400 nM; in the assay on NCI/ADR-RES ovarian, 26500 nM. The GI50 in the assay with SF-268 CNS was 17400 nM; in the assay on A549 NSCLC, 14800 nM; in the assay with SF-295 CNS it was 16700 nM; in the assay with HOP-92 NSCLC, 9890 nM. Besides, the TGI with RXF 393 renal is 39.9 µM; in the assay with SW-620 colon it was more than 100 µM; with COLO 205 colon, more than 100 µM; in the assay on KM12 colon it was 54.4 µM; in the assay with OVCAR-5 ovarian, 53 µM; with NCI/ADR-RES ovarian it was 70.2 µM. In addition, the TGI with SF-268 CNS is 69 µM; in the assay with A549 NSCLC, more than 100 µM; in the assay on SF-295 CNS, 51.2 µM; in the assay on HOP-92 NSCLC, 36.3 µM.

`COc1ccc(C(=O)/C=C/c2sc(Cl)nc2Cl)cc1`: the GI50 in the assay on RXF 393 renal was 1280 nM; in the assay on SW-620 colon, 613 nM; in the assay on COLO 205 colon it was 2280 nM; in the assay on KM12 colon it was 2750 nM; in the assay with OVCAR-5 ovarian, 3010 nM; in the assay on NCI/ADR-RES ovarian, 2550 nM. Also, the GI50 is 3230 nM in the assay with SF-268 CNS, 3720 nM in the assay on A549 NSCLC, 3070 nM in the assay on SF-295 CNS and 4060 nM with HOP-92 NSCLC. Besides, the TGI in the assay with RXF 393 renal is 3.02 µM; in the assay on SW-620 colon, 2.79 µM; in the assay with COLO 205 colon it was 6.74 µM; in the assay with KM12 colon it was 7.54 µM; in the assay on OVCAR-5 ovarian it was 13.3 µM; with NCI/ADR-RES ovarian it was 10.2 µM. Besides, the TGI came out at 16.4 µM in the assay with SF-268 CNS, 19.5 µM in the assay with A549 NSCLC, 11.7 µM with SF-295 CNS and 18 µM in the assay on HOP-92 NSCLC.

Turning to `Cc1cccc(C(C)(C)C)c1NC(=O)C(C#N)C1=C(Cl)C(=O)c2ccccc2C1=O` (stereo not given), the TGI was determined as 30.6 µM in the assay with RXF 393 renal; 36.3 µM in the assay on SW-620 colon; 35 µM with COLO 205 colon; 31.3 µM with KM12 colon; 32 µM in the assay with OVCAR-5 ovarian; 37.7 µM in the assay with NCI/ADR-RES ovarian. For the same compound, the TGI with SF-268 CNS is 31.2 µM; with A549 NSCLC, 46.7 µM; in the assay with SF-295 CNS it was 30.8 µM; with HOP-92 NSCLC, 9.68 µM.

Consider `N#C/C(=C\c1ccc(O)c(O)c1)C(=O)NCc1ccc(C(F)(F)F)cc1`, for which the GI50 in the assay on RXF 393 renal was 12200 nM; with SW-620 colon, 7680 nM; in the assay with COLO 205 colon it was 12100 nM; in the assay on KM12 colon, 6080 nM; in the assay on OVCAR-5 ovarian, 14200 nM; with NCI/ADR-RES ovarian, 5190 nM. Moreover, the GI50 in the assay with SF-268 CNS is 14900 nM; with A549 NSCLC, 10900 nM; in the assay with SF-295 CNS, 3390 nM; in the assay on HOP-92 NSCLC it was 468 nM. In addition, the TGI in the assay with RXF 393 renal amounted to 41 µM; in the assay on SW-620 colon, 37.8 µM; with COLO 205 colon, 43.3 µM; in the assay with KM12 colon, 26.9 µM; with OVCAR-5 ovarian it was 44.7 µM; in the assay on NCI/ADR-RES ovarian it was 24.7 µM. In addition, the TGI in the assay with SF-268 CNS was more than 62.9 µM; in the assay on A549 NSCLC it was 53.5 µM; in the assay on SF-295 CNS it was 11.8 µM; in the assay with HOP-92 NSCLC, 12.3 µM.

Take `Cc1cc(=O)oc2c(C3=NN(C=O)C(c4ccccc4)C3)c(O)ccc12` (stereo not given): the TGI in the assay with RXF 393 renal was more than 80.5 µM; with SW-620 colon it was more than 100 µM; in the assay with COLO 205 colon, more than 81.1 µM; in the assay with KM12 colon, more than 100 µM; with OVCAR-5 ovarian, more than 100 µM; in the assay on NCI/ADR-RES ovarian it was more than 100 µM. For the same compound, the TGI with SF-268 CNS was more than 100 µM; in the assay on A549 NSCLC, more than 32.8 µM; in the assay with SF-295 CNS, more than 31.1 µM; in the assay with HOP-92 NSCLC, 74.5 µM.

Take `N#Cc1ncc(C(Cl)Cl)nc1Cl`: the TGI with RXF 393 renal was found to be 3.39 µM; in the assay on SW-620 colon it was 5.31 µM; in the assay with COLO 205 colon, 3.3 µM; in the assay on KM12 colon, 2.7 µM; in the assay with OVCAR-5 ovarian, 4.39 µM; with NCI/ADR-RES ovarian it was 5.38 µM. The TGI in the assay with SF-268 CNS was more than 7.78 µM; in the assay on A549 NSCLC, more than 10 µM; in the assay on SF-295 CNS, more than 10 µM; in the assay with HOP-92 NSCLC it was 0.536 µM.

For the compound `COc1cc2c(Oc3ccc(NC(=O)C4(C(=O)Nc5ccc(F)cc5)CC4)cc3F)ccnc2cc1OCCCN1CCOCC1`, the GI50 was 468 nM and 661 nM with RXF 393 renal; 346 nM and 311 nM in the assay on SW-620 colon; 281 nM and 308 nM in the assay on COLO 205 colon; 17.7 nM and 18.9 nM with KM12 colon; 885 nM and 1350 nM in the assay with OVCAR-5 ovarian; 1980 nM with NCI/ADR-RES ovarian. For the same compound, the GI50 with SF-268 CNS was 858 nM and 1190 nM; in the assay on A549 NSCLC, 556 nM and 625 nM; in the assay with SF-295 CNS, 51.9 nM and 66.3 nM; in the assay on HOP-92 NSCLC, 243 nM and 43.3 nM. For the same compound, the TGI was 1.77 µM and 1.9 µM with RXF 393 renal; 1.85 µM and 2.6 µM in the assay with SW-620 colon; 0.641 µM and 0.934 µM with COLO 205 colon; 1.44 µM and 2.28 µM in the assay with KM12 colon; 2.7 µM and > 8.7 µM with OVCAR-5 ovarian; more than 10 µM in the assay with NCI/ADR-RES ovarian. The TGI with SF-268 CNS was 2.37 µM and 7.01 µM; with A549 NSCLC, 1.88 µM and 2.2 µM; with SF-295 CNS, 1.26 µM and 1.49 µM; in the assay on HOP-92 NSCLC, 1.65 µM and 0.991 µM.
